Data: paper PMC7766758, “Furan-Conjugated Tripeptides as Potent Antitumor Drugs” (Biomolecules, 2020)
Values after ≈ are worked out from the molar mass of the structure shown. “Also recorded” adds a separate entry of the source. Where two headings read alike, the source gives them in different places. Values belong to the molecule of their own block, whether it stands above or below them. Square brackets hold non-standard residues; d marks the D form. Side chains are listed from the residue outwards. Peptide text beside a SMILES is read from it. * marks the point of attachment. 2Nal = N[C@@H](Cc1ccc2ccccc2c1)C(=O)O; 2Furoyl = O=C(c1ccco1)*

What was measured:
[1] = system: human cervical cancer cells HeLa; assay: Anti-proliferative assay (MTT or resazurin), HeLa; type: cell-based; conditions: for IC50 ± SD (µg/mL), proliferation of HeLa cells / IC50: 48 h
Method: The anti-proliferative effect of peptides was tested using various normal and cancer cells. Human cancer cells used were human cervical cancer cells HeLa (ATCC® CCL-2), and human breast cancer cells MCF-7 (ATCC® HTB22) and MDA-MB-231 (ATCC® HTB-26). Normal cells used were NIH-3T3 (ATCC® CRL-1658), human normal endothelial cells (human umbilical vein endothelial cells, HUVEC) (ECACC, Sigma-Aldrich, Lyon, France), and human lung fibroblasts IMR-90 (ATCC® CCL186). NIH-3T3, HeLa, IMR-90, MDA-MB-231, and MCF-7 cells were grown in DMEM supplemented with 10% fetal bovine serum (FBS), 1% L-glutamine, and 1% antibiotics (all from Invitrogen (Carlsbad, CA, USA)). HUVEC cells were cultured in specific medium (endothelial cell growth medium from Sigma Aldrich, Lyon, France). Cells were routinely grown on 25 cm^2 flasks. For anti-proliferative assay, cells were detached from flasks using a trypsin-EDTA solution (from Thermofisher, Illkirch-Graffenstaden, France). After counting using a Malassez chamber, cells were diluted in appropriate culture media and seeded into 96-well cell culture plates (Greiner bio-one, Paris, France) at approximately 6000 cells/well. Cells were then treated with increasing concentration of conjugates diluted in appropriate medium. Doxorubicin was used as positive control. After 48 h medium was aspirated and the number of viable cells was colorimetrically measured as previously described. Briefly, after exposure to increasing concentrations of conjugates or doxorubicin for 48 h, cell viability was measured using the standard MTT or resazurin assay. For the MTT assay, the supernatant was discarded and 50 µL of 0.5 mg/mL MTT dye was then added to each well and plates were further incubated for 4 h at 37 °C. The MTT was aspirated and 100 µL of DMSO was then added to each well. The extent of MTT reduction to formazan in cells was calculated by measuring the absorbance at 540 nm, using a spectrophotometer (Spectra Max plus, Molecular Devices, CA, USA). For the resazurin assay, the supernatant was discarded and 100 µL of resazurin solution (from Sigma Aldrich, Lyon, France) was added to each well. After 4 h of incubation at 37 °C, fluorescence associated to resazurin biotransformation by live cells was measured using spectrofluorometer (excitation 530 nm/emission 590 nm). In both cases, the antiproliferative activity was recorded as concentration causing 50% growth inhibition (IC50). Experiment was performed in triplicate (n = 3).

[2] = system: human breast cancer cells MDA-MB-231; assay: Anti-proliferative assay, MDA-MB-231; type: cell-based
Method: Cells were routinely grown on 25 cm^2 flasks. […] Doxorubicin was used as positive control. […] Experiment was performed in triplicate (n = 3).

[3] = system: HeLa cells; assay: Atomic force microscopy of HeLa cells; type: cell-based, human; conditions: 20 µg/mL, 24 h
Method: HeLa cells were grown in Dulbecco’s modified eagle medium (DMEM) supplemented with 10% fetal bovine serum. After 70–80% confluency was achieved, cells were treated with conjugate 4 at 20 µg/mL and incubated for 24 h at 37 °C in a 5% CO2 incubator. The next day, these cells were visualized using a microscope. In the untreated control, cells were healthy and attached, therefore, the cells were trypsinized to detach the cells from the wells, and then collected in a sterile Eppendorf tube. In conjugate 4 treated wells, cells were dead and detached. These dead cells were freely floating and therefore the cells were collected without using the trypsinization process in an Eppendorf tube. These cells collected in Eppendorf tubes were washed twice with sterile distilled water and then 10 µL of suspension was deposited into mica chips coated with 0.01% poly-L-lysine, to allow the cells attachment. This cell suspension was then dried at room temperature. Soon after, these mica chips were inserted inside an Agilent Technologies 5500 microscope and the chips were scanned at tapping mode with a silicon nitride cantilever. After finding cells in the chips, these cells were further scanned under a higher magnification. Atomic force microscopy (AFM) topography images were obtained, and we processed them in pseudo color images to differentiate the images according to the height. […]

[4] = system: HeLa cells; assay: Rhodamine 123 and propidium iodide staining assay; type: cell-based, human
Method: As mentioned above, HeLa cells were grown in DMEM medium and seeded 3000 cells/well into 96-well plates. A stock solution of rhodamine 123 (Sigma-Aldrich, St Louis, MO, USA) and prodidium iodide (Sigma-Aldrich, St Louis, MO, USA) at concentrations of 10 and 1 mg/mL were prepared in pure DMSO and water, respectively.
The next day, 1 mL of the fresh media with 2% FBS was made, in which rhodamine 123 and propidium iodide dyes were added to make final concentrations of 10 and 5 µg/mL, respectively. Compounds 4, 4a, and 4b at four different concentrations (10, 20, 30, and 40 µg/mL) were mixed with 1 mL of this media. Old media from the plates were aspirated from each well and 200 µL of fresh media containing compounds, rhodamine 123, and PI dye were added in their respective wells in triplicate and incubated at 37 °C in a 5% CO2 incubator. After 1 and 2 h incubation, media was aspirated from the wells and washed with PBS. These cells were visualized for rhodamine 123 and PI dye staining in a Nikon Eclipse TE2000-U fluorescence microscope at 200× magnification in FITC and TXR filters respectively. Images of cells at the same location for both dyes were captured. Rhodamine 123 and PI staining give green and red fluorescence, respectively. These two different colored images were then merged with one another using ImageJ software (NIH, Bethesda, MD, USA).

[5] = system: HUVEC (human umbilical vein endothelial cells)
Method: (§1) The anti-proliferative effect of peptides was tested using various normal and cancer cells. […] Normal cells used were NIH-3T3 (ATCC® CRL-1658), human normal endothelial cells (human umbilical vein endothelial cells, HUVEC) (ECACC, Sigma-Aldrich, Lyon, France), and human lung fibroblasts IMR-90 (ATCC® CCL186). NIH-3T3, HeLa, IMR-90, MDA-MB-231, and MCF-7 cells were grown in DMEM supplemented with 10% fetal bovine serum (FBS), 1% L-glutamine, and 1% antibiotics (all from Invitrogen (Carlsbad, CA, USA)). HUVEC cells were cultured in specific medium (endothelial cell growth medium from Sigma Aldrich, Lyon, France). Cells were routinely grown on 25 cm^2 flasks. For anti-proliferative assay, cells were detached from flasks using a trypsin-EDTA solution (from Thermofisher, Illkirch-Graffenstaden, France). After counting using a Malassez chamber, cells were diluted in appropriate culture media and seeded into 96-well cell culture plates (Greiner bio-one, Paris, France) at approximately 6000 cells/well. Cells were then treated with increasing concentration of conjugates diluted in appropriate medium. Doxorubicin was used as positive control. […] Briefly, after exposure to increasing concentrations of conjugates or doxorubicin for 48 h, cell viability was measured using the standard MTT or resazurin assay. For the MTT assay, the supernatant was discarded and 50 µL of 0.5 mg/mL MTT dye was then added to each well and plates were further incubated for 4 h at 37 °C. The MTT was aspirated and 100 µL of DMSO was then added to each well. The extent of MTT reduction to formazan in cells was calculated by measuring the absorbance at 540 nm, using a spectrophotometer (Spectra Max plus, Molecular Devices, CA, USA). For the resazurin assay, the supernatant was discarded and 100 µL of resazurin solution (from Sigma Aldrich, Lyon, France) was added to each well. After 4 h of incubation at 37 °C, fluorescence associated to resazurin biotransformation by live cells was measured using spectrofluorometer (excitation 530 nm/emission 590 nm). […]

[6] = system: IMR-90 (normal human fibroblasts)
Method: as §1

[7] = system: human breast cancer cells MCF-7
Method: as §1

[8] = system: mice normal 3T3 fibroblasts cells
Method: as §1

[9] = system: HUVEC (human umbilical vein endothelial cells); assay: cells; conditions: 48 h, read-out: IC50 (µg/mL) HUVEC
Method: as §1

[10] = system: IMR-90 (normal human fibroblasts); assay: cells; conditions: IMR-90, 48 h, read-out: IC50 (µg/mL) IMR-90
Method: as §1

[11] = system: human breast cancer cells MCF-7; assay: cells; conditions: MCF7, 48 h, read-out: IC50 (µg/mL) MCF-7
Method: as §1

[12] = system: mice normal 3T3 fibroblasts cells; assay: cells; conditions: Mus musculus, Fibroblast, 48 h, read-out: IC50 (µg/mL) 3T3
Method: as §1

[13] = HeLa cells, MTT or resazurin, triplicate
[14] = HeLa cells, MTT or resazurin, read-out: IC50 ± SD (µM), proliferation of HeLa cells

Structure (SMILES): C[C@H](NC(=O)[C@H](Cc1ccc2ccccc2c1)NC(=O)c1ccco1)C(=O)N[C@@H](Cc1ccccc1)C(N)=O [Conjugate 4, 2-Fur^4-L-2-Nal^3-L-Ala^2-L-Phe^1-CONH2]
- IC50 [1]: 0.28 ± 0.09 µM
- IC50 ± SD (µg/mL), proliferation of HeLa cells [1]: 0.15 ± 0.05 µg/mL
- antiproliferative activity on MDA-MB-231 (in words) [2]: did not inhibit the proliferation
- IC50 (µg/mL) MDA-MB-231 ([2]; MDA-MB-231, 48 h, mean ± SD of triplicates): >100 µg/mL
- antiproliferative activity on MDA-MB-231 (in words) ([2]; listed as conjugate 4): inactive; also recorded: no effect
- effect on HeLa cell membrane seen by AFM [3]: membranolytic effect; also recorded: membranolytic affect
- rhodamine 123 fluorescence (mitochondrial membrane potential, MMP) ([4]; HeLa, 40 µg/mL, 1 or 2 h treatment): loss of mitochondrial membrane potential; also recorded: totally suppressed rhodamine fluorescence
- PI dye fluorescence (membrane permeabilization) ([4]; HeLa, 20, 30 and 40 µg/mL, 1 or 2 h): increased
- antiproliferative activity on HUVEC (in words) [5]: did not inhibit the proliferation
- IC50 (µg/mL) HUVEC ([5]; 48 h, mean ± SD of triplicates): >100 µg/mL
- antiproliferative activity on IMR-90 (in words) ([6]; IMR-90): did not inhibit the proliferation
- IC50 (µg/mL) IMR-90 ([6]; IMR-90, 48 h, mean ± SD of triplicates): >100 µg/mL
- antiproliferative activity on MCF-7 (in words) ([7]; MCF-7): did not inhibit the proliferation
- IC50 (µg/mL) MCF-7 ([7]; MCF-7, 48 h, mean ± SD of triplicates): >100 µg/mL
- antiproliferative activity on 3T3 cells (in words) ([8]; 3T3): did not inhibit the proliferation
- IC50 (µg/mL) 3T3 ([8]; 3T3, 48 h, mean ± SD of triplicates): >100 µg/mL

Structure (SMILES): C[C@H](NC(=O)[C@H](Cc1ccc2ccccc2c1)NC(=O)c1ccco1)C(=O)N[C@@H](Cc1ccccc1)C(=O)NCCCC[C@H](NC(=O)[C@H](Cc1ccccc1)NC(=O)[C@H](C)NC(=O)[C@H](Cc1ccc2ccccc2c1)NC(=O)c1ccco1)C(N)=O [Conjugate 4b] (2Furoyl-[2Nal]AFK([Phe-Ala-2Nal-2Furoyl])-NH2)
- antiproliferative activity against HeLa cells (in words) ([1]; HeLa cells): inactive
- IC50 ± SD (µg/mL), proliferation of HeLa cells [1, 13]: > 100 µg/mL
- effect on MMP or membrane integrity of HeLa cells (rhodamine 123 / PI) ([4]; HeLa, data not shown): do not affect MMP or the membrane integrity

Structure (SMILES): C[C@H](NC(=O)c1ccco1)C(=O)N[C@@H](Cc1ccc2ccccc2c1)C(=O)N[C@@H](Cc1ccccc1)C(N)=O [Conjugate 7, 2-Fur^4-L-Ala^3-L-2-Nal^2-L-Phe^1-CONH2]
- IC50 ± SD (µg/mL), proliferation of HeLa cells [1, 13]: >100 µg/mL
- IC50 [1, 14]: > 100 µM

Structure (SMILES): C[C@H](NC(=O)c1ccco1)C(=O)N[C@@H](Cc1ccccc1)C(=O)N[C@@H](Cc1ccc2ccccc2c1)C(N)=O [Conjugate 8, 2-Fur^4-L-Ala^3-L-Phe^2-L-2-Nal^1-CONH2]
- IC50 ± SD (µg/mL), proliferation of HeLa cells [1, 13]: 29.1 ± 2.8 µg/mL
- IC50 [1, 14]: 55.3 ± 5.31 µM

Structure (SMILES): COc1cccc2c1C(=O)c1c(O)c3c(c(O)c1C2=O)C[C@@](O)(C(=O)CO)C[C@@H]3O[C@H]1C[C@H](N)[C@H](O)[C@H](C)O1 [Doxorubicin]
- IC50 ([1]; Homo sapiens, HeLa cells, MTT or resazurin, triplicate, read-out: IC50 ± SD (µg/mL), proliferation of HeLa cells): 3.09 ± 0.16 µg/mL
- IC50 ([2]; Homo sapiens, MDA-MB-231, 48 h, mean ± SD of triplicates): 0.21 ± 0.03 µg/mL (≈ 0.386 µM)
- IC50 [9]: 0.02 ± 0.005 µg/mL (≈ 0.0368 µM)
- IC50 [10]: 0.06 ± 0.01 µg/mL (≈ 0.11 µM)
- IC50 [11]: 0.01 ± 0.005 µg/mL (≈ 0.0184 µM)
- IC50 [12]: < 1 µg/mL

Other lines, results leading:

- IC50 ± SD (µg/mL), proliferation of HeLa cells [1, 13]: 4.40 ± 0.20 µg/mL
- IC50 [1, 14]: 8.35 ± 0.37 µM
Structure (SMILES): C[C@H](NC(=O)[C@H](Cc1ccccc1)NC(=O)[C@H](Cc1ccc2ccccc2c1)NC(=O)c1ccco1)C(N)=O [Conjugate 2, 2-Fur^4-L-2-Nal^3-L-Phe^2-L-Ala^1-CONH2]

- IC50 ± SD (µg/mL), proliferation of HeLa cells [1, 13]: 21.1 ± 0.60 µg/mL
- IC50 [1, 14]: 46.8 ± 1.33 µM
Structure (SMILES): C[C@H](NC(=O)[C@H](C)NC(=O)[C@H](Cc1ccc2ccccc2c1)NC(=O)c1ccco1)C(N)=O [Conjugate 3, 2-Fur^4-L-2-Nal^3-L-Ala^2-L-Ala^1-CONH2]

- IC50 ± SD (µg/mL), proliferation of HeLa cells [1, 13]: 2.59 ± 0.30 µg/mL
- IC50 [1, 14]: 4.49 ± 0.52 µM
Structure (SMILES): C[C@H](NC(=O)[C@H](Cc1ccc2ccccc2c1)NC(=O)[C@H](Cc1ccc2ccccc2c1)NC(=O)c1ccco1)C(N)=O [Conjugate 5, 2-Fur^4-L-2-Nal^3-L-2-Nal^2-L-Ala^1-CONH2]

- IC50 ± SD (µg/mL), proliferation of HeLa cells [1, 13]: 10.4 ± 0.10 µg/mL
- IC50 [1, 14]: 19.74 ± 0.18 µM
Structure (SMILES): C[C@H](NC(=O)[C@H](Cc1ccc2ccccc2c1)NC(=O)[C@H](Cc1ccccc1)NC(=O)c1ccco1)C(N)=O [Conjugate 6, 2-Fur^4-L-Phe^3-L-2-Nal^2-L-Ala^1-CONH2]

- IC50 ± SD (µg/mL), proliferation of HeLa cells [1, 13]: 19.2 ± 3.2 µg/mL
- IC50 [1, 14]: 35.4 ± 5.89 µM
Structure (SMILES): C[C@H](NC(=O)[C@H](Cc1ccc(O)cc1)NC(=O)[C@H](Cc1ccc2ccccc2c1)NC(=O)c1ccco1)C(N)=O [Conjugate 9, 2-Fur^4-L-2-Nal^3-L-Tyr^2-L-Ala^1-CONH2]

- IC50 ± SD (µg/mL), proliferation of HeLa cells [1, 13]: 4.70 ± 0.60 µg/mL
- IC50 [1, 14]: 9.16 ± 1.17 µM
Structure (SMILES): C[C@H](NC(=O)[C@@H](NC(=O)[C@H](Cc1ccc2ccccc2c1)NC(=O)c1ccco1)c1ccccc1)C(N)=O [Conjugate 10, 2-Fur^4-L-2-Nal^3-L-Phg^2-L-Ala^1-CONH2]
